According to PMC9516332 (Frontiers in Oncology, 2022):
Read-outs that look alike come from different tables or passages of the source.

What was measured:
Assay in all cases: Kinase panel profiling at 1 µmol/L (MSA or IMAP), percentage inhibition
Format in all cases: biochemical
[1] = molecular target: panel of 255 wild-type kinases (Homo sapiens, UniProt Q15119); settings: read-out: %-inhibition at 1 µmol/L, PDHK2
[2] = molecular target: panel of 255 wild-type kinases (Homo sapiens, UniProt O94804); settings: read-out: %-inhibition at 1 µmol/L, LOK
[3] = molecular target: T1, panel of 255 wild-type kinases (Homo sapiens, UniProt Q9NZJ5); settings: read-out: %-inhibition at 1 µmol/L, PEK
T1 sequence (Q9NZJ5 30-1116): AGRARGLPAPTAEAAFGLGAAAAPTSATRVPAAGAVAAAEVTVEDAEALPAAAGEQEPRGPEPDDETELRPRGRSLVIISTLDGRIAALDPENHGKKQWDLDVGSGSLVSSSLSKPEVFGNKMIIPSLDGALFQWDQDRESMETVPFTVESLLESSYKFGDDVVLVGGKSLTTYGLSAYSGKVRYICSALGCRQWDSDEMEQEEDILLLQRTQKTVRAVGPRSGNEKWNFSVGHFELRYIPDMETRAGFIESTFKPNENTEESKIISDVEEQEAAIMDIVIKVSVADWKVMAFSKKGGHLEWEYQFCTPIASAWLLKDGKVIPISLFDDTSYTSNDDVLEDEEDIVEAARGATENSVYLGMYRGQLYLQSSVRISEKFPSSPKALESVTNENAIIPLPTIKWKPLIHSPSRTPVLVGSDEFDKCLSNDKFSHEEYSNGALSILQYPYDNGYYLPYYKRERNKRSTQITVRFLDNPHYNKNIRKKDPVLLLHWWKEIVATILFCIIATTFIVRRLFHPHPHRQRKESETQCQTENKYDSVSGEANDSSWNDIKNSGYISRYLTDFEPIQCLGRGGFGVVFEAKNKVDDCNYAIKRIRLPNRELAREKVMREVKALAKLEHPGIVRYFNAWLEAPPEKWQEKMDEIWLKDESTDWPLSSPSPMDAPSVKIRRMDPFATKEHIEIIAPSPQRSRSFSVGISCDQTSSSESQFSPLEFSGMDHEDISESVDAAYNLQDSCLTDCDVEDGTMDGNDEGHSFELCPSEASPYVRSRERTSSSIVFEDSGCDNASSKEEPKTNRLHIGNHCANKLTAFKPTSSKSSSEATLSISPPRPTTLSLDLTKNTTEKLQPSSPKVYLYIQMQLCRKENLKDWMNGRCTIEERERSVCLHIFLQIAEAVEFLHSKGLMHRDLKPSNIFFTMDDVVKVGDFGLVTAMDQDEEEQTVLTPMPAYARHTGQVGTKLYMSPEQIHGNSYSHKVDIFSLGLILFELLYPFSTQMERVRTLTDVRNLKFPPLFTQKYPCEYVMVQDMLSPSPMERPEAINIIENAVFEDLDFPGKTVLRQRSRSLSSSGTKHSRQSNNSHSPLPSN

[4] = molecular target: panel of 255 wild-type kinases (Homo sapiens, UniProt P12931); settings: read-out: %-inhibition at 1 µmol/L, SRC
[5] = molecular target: panel of 255 wild-type kinases (Homo sapiens, UniProt P07332); settings: read-out: %-inhibition at 1 µmol/L, FES
[6] = molecular target: panel of 255 wild-type kinases (Homo sapiens, UniProt P07948); settings: read-out: %-inhibition at 1 µmol/L, LYNa
[7] = molecular target: panel of 255 wild-type kinases (Homo sapiens, UniProt P48730); settings: read-out: %-inhibition at 1 µmol/L, CK1δ
[8] = molecular target: panel of 255 wild-type kinases (Homo sapiens, UniProt P78368); settings: read-out: %-inhibition at 1 µmol/L, CK1γ2
[9] = molecular target: panel of 255 wild-type kinases (Homo sapiens, UniProt Q8TDX7); settings: read-out: %-inhibition, NEK7
[10] = molecular target: panel of 255 wild-type kinases (Homo sapiens, UniProt P31749); settings: read-out: %-inhibition AKT1
[11] = molecular target: T2, panel of 255 wild-type kinases (Homo sapiens, UniProt P30530); settings: read-out: %-inhibition AXL
T2 sequence (P30530 26-894): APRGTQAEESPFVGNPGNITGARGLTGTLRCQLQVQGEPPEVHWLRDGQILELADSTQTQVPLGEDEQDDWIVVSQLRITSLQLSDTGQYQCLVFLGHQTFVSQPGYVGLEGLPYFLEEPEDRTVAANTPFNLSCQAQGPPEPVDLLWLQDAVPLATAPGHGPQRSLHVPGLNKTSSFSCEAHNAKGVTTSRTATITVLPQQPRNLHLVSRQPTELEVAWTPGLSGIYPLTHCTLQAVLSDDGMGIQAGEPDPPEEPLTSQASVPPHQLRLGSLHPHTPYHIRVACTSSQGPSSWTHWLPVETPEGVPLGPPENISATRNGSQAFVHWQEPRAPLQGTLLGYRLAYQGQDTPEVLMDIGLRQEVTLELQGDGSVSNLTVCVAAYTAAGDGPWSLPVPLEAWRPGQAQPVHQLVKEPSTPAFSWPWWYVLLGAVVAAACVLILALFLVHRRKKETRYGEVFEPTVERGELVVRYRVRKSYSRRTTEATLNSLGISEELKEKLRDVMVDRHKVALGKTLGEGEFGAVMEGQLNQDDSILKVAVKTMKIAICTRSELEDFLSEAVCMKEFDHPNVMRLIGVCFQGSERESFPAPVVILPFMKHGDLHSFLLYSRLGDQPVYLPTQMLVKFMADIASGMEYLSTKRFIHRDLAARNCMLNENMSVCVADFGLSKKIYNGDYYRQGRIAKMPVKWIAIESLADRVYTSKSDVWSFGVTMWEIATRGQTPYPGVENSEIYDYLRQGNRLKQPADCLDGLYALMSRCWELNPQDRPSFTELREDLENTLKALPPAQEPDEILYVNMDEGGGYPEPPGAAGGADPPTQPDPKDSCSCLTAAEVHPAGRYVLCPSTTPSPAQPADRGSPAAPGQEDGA

[12] = kinase PDHK2, 1 µmol/L single concentration
[13] = kinase LOK, 1 µmol/L single concentration
[14] = kinase PEK, 1 µmol/L single concentration
[15] = kinase SRC, 1 µmol/L single concentration
[16] = kinase FES, 1 µmol/L single concentration
[17] = kinase LYNa, 1 µmol/L single concentration
[18] = kinase CK1δ, 1 µmol/L single concentration
[19] = kinase CK1γ2, 1 µmol/L single concentration
[20] = NEK7, 1 µmol/L single concentration
[21] = AKT1 kinase assay, 1 µmol/L single concentration
[22] = AXL kinase assay, 1 µmol/L single concentration

Compound	inhibition at 1 µM [1, 12] [%]	inhibition at 1 µM [2, 13] [%]	inhibition at 1 µM [3, 14] [%]	inhibition at 1 µM [4, 15] [%]	inhibition at 1 µM [5, 16] [%]	inhibition at 1 µM [6, 17] [%]	inhibition at 1 µM [7, 18] [%]	inhibition at 1 µM [8, 19] [%]	inhibition at 1 µM [9, 20] [%]	inhibition at 1 µM [10, 21] [%]	inhibition at 1 µM [11, 22] [%]	other results
Cc1nc(NC(=O)N2CCC[C@H]2C(N)=O)sc1-c1ccnc(C(C)(C)C(F)(F)F)c1 [alpelisib]	0.0902	-7	10	3.29	-3.47	1.8	9	-1.58	0.399	-6.35	-3.59	–
Cn1cc(-c2cc3c(N4CCN(c5ncc([C@@](C)(N)c6ccc(F)cc6)cn5)CC4)ncnn3c2)cn1 [avapritinib]	0.651	54	1.51	66	1.65	87	11	7	-11	-9	37	–
Cn1cnc2c(F)c(Nc3ccc(Br)cc3F)c(C(=O)NOCCO)cc21 [binimetinib]	-1.13	3.42	4.67	-0.525	6	3.76	-4	-0.416	2	-5	-1.7	–
CNC(=O)c1ccc(-c2cnc3ncc(Cc4ccc5ncccc5c4)n3n2)cc1F [capmatinib]	–	–	–	–	–	–	–	–	–	–	–	inhibition at 1 µM [1]: -2.62%; inhibition at 1 µM [2]: 0.859%; inhibition at 1 µM [3]: 4.25%; inhibition at 1 µM [4]: -1.77%; inhibition at 1 µM [5]: -2%; inhibition at 1 µM [6]: 1.12%; inhibition at 1 µM [7]: -1.78%; inhibition at 1 µM [8]: -10%; inhibition at 1 µM [9]: -9%; inhibition at 1 µM [10]: -10%; inhibition at 1 µM [11]: 34%
COc1cc2ncnc(Nc3ccc(F)c(Cl)c3)c2cc1NC(=O)/C=C/CN1CCCCC1 [dacomitinib]	2.44	86	2.82	44	1.56	79	-6.63	-1.63	-4.37	-22	40	–
C[C@H](Nc1ncnc2nc[nH]c12)c1cc2cccc(Cl)c2c(=O)n1-c1ccccc1 [duvelisib]	3.57	0.582	5.65	-1.74	-0.806	0.825	-4.49	2.74	-0.791	-6	-0.298	–
COC(=O)N[C@@H](C)CNc1nccc(-c2cn(C(C)C)nc2-c2cc(Cl)cc(NS(C)(=O)=O)c2F)n1 [encorafenib]	-2	1.24	9	-2.16	7	5	20	31	5	-2	0.276	–
CN1CCN(c2ccc(C(=O)Nc3n[nH]c4ccc(Cc5cc(F)cc(F)c5)cc34)c(NC3CCOCC3)c2)CC1 [entrectinib]	4.24	28	0.561	95	68	74	-5	0.857	-1.81	-9	96	–
CCc1nc(C(N)=O)c(Nc2ccc(N3CCC(N4CCN(C)CC4)CC3)c(OC)c2)nc1NC1CCOCC1 [gilteritinib]	5	100	–	89	76	88	25	6.55	-2	-22	100	–
CCN1CCN(c2ccc(Nc3cc(N(C)C(=O)Nc4c(Cl)c(OC)cc(OC)c4Cl)ncn3)cc2)CC1 [infigratinib]	-3.38	34	49	37	20	84	-4.4	-12	-3.65	-12	30	–
C[C@H]1Oc2cc(cnc2N)-c2c(nn(C)c2C#N)CN(C)C(=O)c2ccc(F)cc21 [lorlatinib]	1.88	87	-1.65	28	–	21	-6.46	2.14	1.44	-4	8	–
C=CC(=O)N1CCC([C@@H]2CCNc3c(C(N)=O)c(-c4ccc(Oc5ccccc5)cc4)nn32)CC1 [zanubrutinib]	5	5	2	–	1.42	–	-4	-7	2	-13	4.56	–
